# Experimental data from US12029814B1, “Formulation of ear drops and methods for delivery thereof for treating upper respiratory infections” (priority 2023, dated 2024).
# Legend:
# Assay type in all cases: cell-based
# SARS-COV-2 XBB = system: SARS-COV-2 XBB
# SARS-COV-2 BA.1 = system: SARS-COV-2 BA.1
# SARS-COV-2 XBB1.5 = system: SARS-COV-2 XBB1.5
# SARS-COV-2 BA.5 = system: SARS-COV-2 BA.5
# SARS-COV-2 BA.2 = system: SARS-COV-2 BA.2
# [1] = system: original WA1 viral strain of SARS-COV-2; experiment: in vitro infectivity of epithelial cells expressing ACE-2 and TMPRSS-2, virus-NP protein in culture media; conditions: MOI 0.01
substance,measurement,setting,value
hemin,replication of SARS-COV-2 XBB,SARS-COV-2 XBB,significantly suppressed replication
same,cellular protection against SARS-COV-2 BA.1 infection,SARS-COV-2 BA.1,protected cells
same,inhibition of SARS-COV-2 BA.1 (dose response),SARS-COV-2 BA.1,dose-dependent inhibition
same,replication of SARS-COV-2 XBB1.5,SARS-COV-2 XBB1.5,significantly suppressed replication
same,replication of SARS-COV-2 BA.5,SARS-COV-2 BA.5,significantly suppressed replication
same,replication of SARS-COV-2 BA.2,SARS-COV-2 BA.2,significantly suppressed replication
same,"SARS-COV-2 infection, original WA1 viral strain",[1],markedly suppressed
